Test results taken from patent US20170266237A1, “Generation of Brown Adipose Tissue (BAT) from Mesenchymal Cells” (National University of Singapore, priority 2012, published 2017).

How the values were obtained:
Assay type in all cases: cell-based, human
UCP1 mRNA [1] = test: Quantitative PCR of UCP1 mRNA after forskolin stimulation of adipogenically induced MSCs; conditions: adipogenically induced MSCs stimulated with forskolin
Description: b) Adipogenic Induction of Mesenchymal Stem Cells (MSC). MSCs were seeded at an initial density of about 10.5×10^4 cells/cm^2 in well plates and grown to confluence. Adipogenic differentiation was induced via three cycles of 4 days of induction, followed by 3 days of maintenance. The basal media used in the differentiation process composed of high glucose Dulbecco's modified Eagle's medium (HG DMEM, Gibco) supplemented with Glutamax, 10% fetal bovine serum, 100 units/ml penicillin and […] streptomycin The standard white adipogenic induction media is supplemented with 3-isobutyl-1methylxanthine (0.5 mM), indomethacin (0.2 mM), dexamethasone (1 μM) and insulin (10 μg/ml). For brown adipocyte differentiation, cells were pre-treated with BMP7 (R&D Systems 354-BP, 125 ng/ml) 3 days prior to induction. […]
(§1) e) Quantitative PCR to assess expression of pan-adipocyte and brown adipocyte genes. […] Real time quantitative polymerase chain reactions (RT-PCR) were performed and monitored on a real-time PCR instrument (Stratagene) using Maxima™ SYBR Green/ROX qPCR Master Mix (K0222, Fermentas). […] Relative gene expression levels were determined using the ΔΔ-Ct method with the geometric mean of human TATA-box binding protein (TBP) and ribosomal phosphoprotein P0 (RPLP0) levels as an endogenous control.

[2] = tested on: adipogenically induced mesenchymal stem cells; test: Nile Red adherent cytometry of cytoplasmic lipid accumulation / lipolysis; conditions: for lipolysis after isoproterenol (emptying of lipid droplets): 16 hrs of 5 μM isoproterenol, white and brown adipogenically induced MSCs
Description: b) Adipogenic Induction of Mesenchymal Stem Cells (MSC). MSCs were seeded at an initial density of about 10.5×10^4 cells/cm^2 in well plates and grown to confluence. Adipogenic differentiation was induced via three cycles of 4 days of induction, followed by 3 days of maintenance. The basal media used in the differentiation process composed of high glucose Dulbecco's modified Eagle's medium (HG DMEM, Gibco) supplemented with Glutamax, 10% fetal bovine serum, 100 units/ml penicillin and […] streptomycin The standard white adipogenic induction media is supplemented with 3-isobutyl-1methylxanthine (0.5 mM), indomethacin (0.2 mM), dexamethasone (1 μM) and insulin (10 μg/ml). For brown adipocyte differentiation, cells were pre-treated with BMP7 (R&D Systems 354-BP, 125 ng/ml) 3 days prior to induction. The brown adipogenic induction media is supplemented with 3-isobutyl-lmethylxanthine (0.5 mM), indomethacin (0.2 mM), dexamethasone (1 μM), insulin (10 μg/ml), triiodothyronine (1 nM) and Rosiglitazone (1 μM). Basal media alone was used during the maintenance phase. For conditions treated with macromolecular crowding (+MMC), a cocktail of macromolecules (+MMC), consisting of Ficoll 70 (37.5 mg/ml) and Ficoll 400 (25 mg/ml) was added to the basal media (High glucose DMEM, Gibco) throughout the differentiation process (during both induction and maintenance phases).
c) Stimulation with forskolin or isoproterenol. After the 3-week adipogenic differentiation, cells were incubated with 10 μM forskolin (Sigma) or 5 μM isoproterenol (Sigma) for 4 h or 16 h before analysis, to mimic nor-adrenergic stimulation in culture.
d) Nile Red Adherent Cytometry to assess area of cytoplasmic lipid accumulation. After 21 days (corresponding to three complete induction cycles), cell cultures were rinsed with PBS, fixed in 4% formaldehyde (10 min; RT) then co-stained for 30 min with Nile Red (Sigma-Aldrich; 5 μg/ml), for cytoplasmic lipid droplets and 4′,6-diamidino-2-phenylindole (DAPI; 0.5 μg/ml) for nuclear DNA as described previously. Adherent fluorescent cytometry was based on 9 sites per well imaged with a coolSNAP HQ camera attached to a Nikon TE2000 microscope at 2× magnification, covering 83% of total well area. Nile Red was viewed under a rhodamine filter [Ex572 nm/Em630 nm] while DAPI fluorescence was assessed with a DAPI filter [Ex350 nm/Em465 nm]. Measured Nile Red events were thresholded and measured by an image analysis software (MetaMorph 6.3v3). Extent of adipogenic differentiation was quantified by area of Nile Red fluorescence from thresholded events normalized to nuclei count based on detected DAPI fluorescence. End data corresponded to total area of lipid droplets present per well relative to cell number.

UCP1 mRNA [3] = test: Quantitative PCR of UCP1 mRNA expression in adipogenically induced MSCs; conditions: 3-week adipogenic induction of MSCs
Description: a) Mesenchymal Stem Cell Culture. Human bone-marrow derived mesenchymal stem cells (MSCs) were obtained commercially (Cambrex) at passage 2 (p2) and cultured in a basic culture medium composed of low glucose Dulbecco's modified Eagle's medium (LG DMEM, Gibco) supplemented with Glutamax, 10% fetal bovine serum, 100 units/ml penicillin and […] streptomycin. Cells were maintained at 37° C. in a humidified atmosphere of 5% CO2, with medium change twice per week. To prevent spontaneous differentiation, cells were maintained at subconfluent levels prior to being detached using TrypLE™ Express (Gibco), passaged at 1:3 and cultured to generate subsequent passages. Directed differentiation was carried out with cells between passage 6 (p6) and 8 (p8).
b) Adipogenic Induction of Mesenchymal Stem Cells (MSC). […]
as §1

C=C[C@@]1(C)CC(=O)[C@]2(O)[C@@]3(C)[C@@H](O)CCC(C)(C)[C@@H]3[C@H](O)[C@H](OC(C)=O)[C@@]2(C)O1 [forskolin]
additional UCP1 mRNA upregulation on forskolin stimulation (UCP1 mRNA [1]): 10 fold
reduction of Nile Red positive area (factor) ([2]; brown induction protocol, 16 hrs after forskolin stimulus): 2.14
reduction of hypothetical triglyceride volume (factor) ([2]; modeled as sphere, brown induced MSCs under crowding, after forskolin treatment): 3

CC(C)NCC(O)c1ccc(O)c(O)c1 (stereo not drawn) [isoproterenol]
lipolysis after isoproterenol (emptying of lipid droplets) [2]: leads to emptying of lipid droplets
lipolysis after isoproterenol (emptying of lipid droplets) ([2]; listed as Isoproterenol): stronger lipolytic effect on adipocytes that had been differentiated under a BAT induction protocol

B1: BMP7: bone morphogenetic protein, R&D Systems 354-BP, 125 ng/ml pre-treatment 3 days prior to induction (protein, UniProt P18075 293-431, looked up)
Bone morphogenetic protein 7: STGSKQRSQNRSKTPKNQEALRMANVAENSSSDQRQACKKHELYVSFRDLGWQDWIIAPEGYAAYYCEGECAFPLNSYMNATNHAIVQTLVHFINPETVPKPCCAPTQLNAISVLYFDDSSNVILKKYRNMVVRACGCH
effect on UCP1 mRNA expression (in words) (UCP1 mRNA [3]): only modestly increases
